Experimental data taken from US7012041B2, “Phenylpyridazinones” (Bayer AG, priority 1995, dated 2006).

What was measured:
Type in all cases: in vivo
[1] = test system: Abutilon; assay: Pre-emergence test/greenhouse; settings: for % damage Abutilon: after three weeks; for activity against Abutilon (% damage): application rate between 125 and 500 g/ha, span over the named compounds
Description: (§1) • Solvent: 5 parts by weight of acetone • Emulsifier: 1 part by weight of alkylaryl polyglycol ether
(§2) To produce a suitable preparation of active compound, 1 part by weight of active compound is mixed with the stated amount of solvent, the stated amount of emulsifier is added and the concentrate is diluted with water to the desired concentration.
(§3) Seeds of the test plants are sown in normal soil. After 24 hours, the soil is watered or sprayed with the preparation of the active compound. It is advantageous to keep the amount of water per unit area constant. The concentration of the active compound in the preparation is immaterial, only the amount of active compound applied per unit area matters.
(§4) After three weeks, the degree of damage to the plants is rated in % damage by comparison with the development of the untreated control.
(§5) The figures denote: • 0%=no effect (like untreated control) • 100%=total destruction

[2] = test system: Solanum; assay: Pre-emergence test/greenhouse; settings: after three weeks
Description: as §1, §2, §3, §4, §5

[3] = test system: Sunflower; assay: Pre-emergence test/greenhouse; settings: after three weeks
Description: as §1, §2, §3, §4, §5

[4] = test system: Maize; assay: Pre-emergence test/greenhouse; settings: after three weeks
Description: as §1, §2, §3, §4, §5

[5] = test system: Chenopodium; assay: Pre-emergence test/greenhouse; settings: after three weeks
Description: as §1, §2, §3, §4, §5

[6] = test system: Wheat; assay: Post-emergence test/greenhouse; settings: after three weeks
Description: as §1, §2
(§6) Test plants which have a height of 5–15 cm are sprayed with the preparation of the active compound in such a way as to apply the particular amounts of active compound desired per unit area.
as §4, §5

[7] = test system: Polygonum; assay: Post-emergence test/greenhouse; settings: after three weeks
Description: as §1, §2, §6, §4, §5

[8] = test system: Datura; assay: Post-emergence test/greenhouse; settings: after three weeks
Description: as §1, §2, §6, §4, §5

[9] = test system: Amaranthus; assay: Post-emergence test/greenhouse; settings: after three weeks
Description: as §1, §2, §6, §4, §5

[10] = test system: Chenopodium; assay: Post-emergence test/greenhouse; settings: after three weeks
Description: as §1, §2, §6, §4, §5

[11] = test system: Veronica; assay: Post-emergence test/greenhouse; settings: after three weeks
Description: as §1, §2, §6, §4, §5

[12] = test system: Galinsoga; assay: Pre-emergence test/greenhouse; settings: after three weeks
Description: as §1, §2, §3, §4, §5

Structure (SMILES) | % damage Abutilon ([1]; 500 g ai/ha) [%] | % damage Solanum ([2]; 500 g ai/ha) [%] | % damage Sunflower ([3]; 500 g ai/ha) [%] | % damage Maize ([4]; 500 g ai/ha) [%] | % damage Chenopodium ([5]; 500 g ai/ha) [%] | % damage Galinsoga ([12]; 500 g ai/ha) [%] | % damage Galinsoga ([12]; 250 g ai/ha) [%] | % damage Abutilon ([1]; 250 g ai/ha) [%] | activity against Abutilon (% damage) [1] [%] | % damage Solanum ([2]; 250 g ai/ha) [%] | % damage Maize ([4]; 250 g ai/ha) [%] | also measured
Nc1cnn(-c2ccccc2)c(=O)c1Cl [(A), 5-Amino-4-chloro-2-phenyl-pyridazin-3-one, reference compound] | 20 | 40 | 100 | 0 | 50 | – | – | – | – | – | – | –
Cc1cnn(-c2ccccc2)c(=O)c1Br [(B), 4-Bromo-5-methyl-2-phenyl-pyridazin-3-one, reference compound] | 0 | 50 | 0 | 0 | 50 | 30 | – | – | – | – | – | % damage Wheat ([6]; 250 g ai/ha): 30%; % damage Polygonum ([7]; 250 g ai/ha): 50%; % damage Datura ([8]; 250 g ai/ha): 80%; % damage Amaranthus ([9]; 250 g ai/ha): 30%; % damage Chenopodium ([10]; 250 g ai/ha): 50%; % damage Veronica ([11]; 250 g ai/ha): 40%
Cc1cnn(-c2cc(F)c(C#N)cc2F)c(=O)c1 [Example 3, 2-(2,5-difluoro-4-cyano-phenyl)-5-methyl-pyridazin-3-one] | – | – | – | – | – | – | 100 | 100 | 100 | 90 | 0 | % damage Sunflower ([3]; 250 g ai/ha): 0%
C#CCOc1cc(-n2nc(C)ccc2=O)c(F)cc1C#N [Example 7, 2-(2-fluoro-4-cyano-5-propargyloxy-phenyl)-6-methyl-pyridazin-3-one] | – | – | – | – | – | – | 95 | 100 | 100 | 100 | 0 | % damage Sunflower ([3]; 250 g ai/ha): 20%; % damage Chenopodium ([5]; 250 g ai/ha): 100%
C#CC(C)Oc1cc(-n2ncc(C)cc2=O)c(F)cc1C#N (stereo not drawn) [Example 8, 2-(2-fluoro-4-cyano-5-but-1-ine-3-yl-oxy-phenyl)-5-methyl-pyridazin-3-one] | – | – | – | – | – | – | 100 | 100 | 100 | 100 | 0 | % damage Wheat ([6]; 60 g ai/ha): 0%; % damage Polygonum ([7]; 60 g ai/ha): 100%; % damage Datura ([8]; 60 g ai/ha): 100%; % damage Amaranthus ([9]; 60 g ai/ha): 90%; % damage Chenopodium ([10]; 60 g ai/ha): 95%; % damage Veronica ([11]; 60 g ai/ha): 100%; % damage Sunflower ([3]; 250 g ai/ha): 0%; % damage Chenopodium ([5]; 250 g ai/ha): 100%
CCS(=O)(=O)Nc1cc(-n2nc(C)ccc2=O)c(F)cc1C#N [Example 15] | 100 | 95 | 0 | 0 | 100 | 80 | – | – | 100 | – | – | % damage Wheat ([6]; 250 g ai/ha): 5%; % damage Polygonum ([7]; 250 g ai/ha): 80%; % damage Datura ([8]; 250 g ai/ha): 90%; % damage Amaranthus ([9]; 250 g ai/ha): 100%; % damage Chenopodium ([10]; 250 g ai/ha): 95%; % damage Veronica ([11]; 250 g ai/ha): 95%
C#CC(C)Oc1cc(-n2nc(C)ccc2=O)c(F)cc1C#N (stereo not drawn) [Example 16] | 100 | 100 | 20 | 10 | 100 | 100 | – | – | 100 | – | – | % damage Wheat ([6]; 60 g ai/ha): 5%; % damage Polygonum ([7]; 60 g ai/ha): 95%; % damage Datura ([8]; 60 g ai/ha): 100%; % damage Amaranthus ([9]; 60 g ai/ha): 100%; % damage Chenopodium ([10]; 60 g ai/ha): 95%; % damage Veronica ([11]; 60 g ai/ha): 90%
CCS(=O)(=O)Nc1cc(-n2ncc(NC)c(Cl)c2=O)c(F)cc1C#N [Example 25] | 100 | 60 | – | 0 | 90 | 100 | – | – | 100 | – | – | –
C#CC(CC)Oc1cc(-n2nc(C)ccc2=O)c(F)cc1C#N (stereo not drawn) [Example 29] | 100 | 100 | 0 | 0 | 100 | 100 | – | – | 100 | – | – | –
CCS(=O)(=O)Nc1cc(-n2ncc(C)cc2=O)c(F)cc1C#N [Example 31] | – | – | – | – | – | – | 80 | 100 | 100 | 100 | 0 | % damage Wheat ([6]; 60 g ai/ha): 5%; % damage Polygonum ([7]; 60 g ai/ha): 90%; % damage Datura ([8]; 60 g ai/ha): 100%; % damage Amaranthus ([9]; 60 g ai/ha): 100%; % damage Chenopodium ([10]; 60 g ai/ha): 80%; % damage Veronica ([11]; 60 g ai/ha): 90%; % damage Sunflower ([3]; 250 g ai/ha): 0%
CCS(=O)(=O)Nc1cc(-n2ncc(C)cc2=O)c(Cl)cc1Cl [Example 34] | 100 | 90 | 20 | 0 | 100 | 100 | – | – | 100 | – | – | –
C#CC(CC)Oc1cc(-n2ncc(C)cc2=O)c(F)cc1C#N (stereo not drawn) [Example 35] | – | – | – | – | – | – | 100 | 100 | 100 | 100 | 0 | % damage Wheat ([6]; 60 g ai/ha): 20%; % damage Polygonum ([7]; 60 g ai/ha): 90%; % damage Datura ([8]; 60 g ai/ha): 100%; % damage Amaranthus ([9]; 60 g ai/ha): 95%; % damage Chenopodium ([10]; 60 g ai/ha): 95%; % damage Veronica ([11]; 60 g ai/ha): 95%; % damage Chenopodium ([5]; 250 g ai/ha): 100%
Cc1cnn(-c2cc(OC(C)C)c(C#N)cc2F)c(=O)c1 [Example 36] | – | – | – | – | – | – | 90 | 100 | 100 | 100 | 10 | % damage Chenopodium ([5]; 250 g ai/ha): 100%
C#CCOc1cc(-n2ncc(C)cc2=O)c(F)cc1C#N [Example 37] | – | – | – | – | – | – | – | – | – | – | – | % damage Wheat ([6]; 125 g ai/ha): 20%; % damage Polygonum ([7]; 125 g ai/ha): 100%; % damage Datura ([8]; 125 g ai/ha): 100%; % damage Amaranthus ([9]; 125 g ai/ha): 100%; % damage Chenopodium ([10]; 125 g ai/ha): 100%; % damage Veronica ([11]; 125 g ai/ha): 100%
C#CCOc1cc(-n2ncc(N(C)C)c(Cl)c2=O)c(F)cc1C#N [Example 41] | – | – | – | – | – | – | – | – | 100 | – | – | % damage Wheat ([6]; 250 g ai/ha): 20%; % damage Polygonum ([7]; 250 g ai/ha): 100%; % damage Datura ([8]; 250 g ai/ha): 100%; % damage Amaranthus ([9]; 250 g ai/ha): 60%; % damage Chenopodium ([10]; 250 g ai/ha): 90%; % damage Veronica ([11]; 250 g ai/ha): 100%; % damage Galinsoga ([12]; 125 g ai/ha): 100%; % damage Abutilon ([1]; 125 g ai/ha): 100%; % damage Solanum ([2]; 125 g ai/ha): 100%; % damage Sunflower ([3]; 125 g ai/ha): 0%; % damage Maize ([4]; 125 g ai/ha): 10%; % damage Chenopodium ([5]; 125 g ai/ha): 100%
